Values belong to the molecule of their own block, whether it stands above or below them.
Experiments:
Heme-containing sGC = target: T1, Heme-containing sGC (Rattus norvegicus, UniProt P20595); assay: Stimulation of recombinant soluble guanylate cyclase (sGC) in vitro, heme-containing enzyme; assay type: biochemical; conditions: for Stimulation (n-fold), heme-containing sGC, DEA/NO alone: Ex. 6 0 μM
T1 construct: made in house; host or cells: Sf9 insect cells (baculovirus)
T1 sequence (P20595 1-619): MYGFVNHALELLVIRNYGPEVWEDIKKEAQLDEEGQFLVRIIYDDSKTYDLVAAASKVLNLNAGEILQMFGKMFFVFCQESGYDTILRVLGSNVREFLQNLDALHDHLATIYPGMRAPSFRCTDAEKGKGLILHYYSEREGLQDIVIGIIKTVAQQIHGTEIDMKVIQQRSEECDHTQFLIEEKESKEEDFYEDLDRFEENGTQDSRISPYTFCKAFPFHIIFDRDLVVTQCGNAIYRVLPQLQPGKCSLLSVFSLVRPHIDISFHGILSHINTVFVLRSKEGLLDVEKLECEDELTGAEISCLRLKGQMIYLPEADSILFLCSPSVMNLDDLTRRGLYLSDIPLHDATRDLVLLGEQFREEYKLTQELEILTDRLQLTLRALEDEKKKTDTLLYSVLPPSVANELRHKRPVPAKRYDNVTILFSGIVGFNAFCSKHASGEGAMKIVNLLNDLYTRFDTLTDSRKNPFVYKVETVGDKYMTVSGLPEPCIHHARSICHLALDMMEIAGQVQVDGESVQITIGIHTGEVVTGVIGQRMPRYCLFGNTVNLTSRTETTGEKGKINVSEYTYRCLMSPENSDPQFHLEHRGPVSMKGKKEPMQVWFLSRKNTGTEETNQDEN
T1 sequence (P19686 1-690 partner): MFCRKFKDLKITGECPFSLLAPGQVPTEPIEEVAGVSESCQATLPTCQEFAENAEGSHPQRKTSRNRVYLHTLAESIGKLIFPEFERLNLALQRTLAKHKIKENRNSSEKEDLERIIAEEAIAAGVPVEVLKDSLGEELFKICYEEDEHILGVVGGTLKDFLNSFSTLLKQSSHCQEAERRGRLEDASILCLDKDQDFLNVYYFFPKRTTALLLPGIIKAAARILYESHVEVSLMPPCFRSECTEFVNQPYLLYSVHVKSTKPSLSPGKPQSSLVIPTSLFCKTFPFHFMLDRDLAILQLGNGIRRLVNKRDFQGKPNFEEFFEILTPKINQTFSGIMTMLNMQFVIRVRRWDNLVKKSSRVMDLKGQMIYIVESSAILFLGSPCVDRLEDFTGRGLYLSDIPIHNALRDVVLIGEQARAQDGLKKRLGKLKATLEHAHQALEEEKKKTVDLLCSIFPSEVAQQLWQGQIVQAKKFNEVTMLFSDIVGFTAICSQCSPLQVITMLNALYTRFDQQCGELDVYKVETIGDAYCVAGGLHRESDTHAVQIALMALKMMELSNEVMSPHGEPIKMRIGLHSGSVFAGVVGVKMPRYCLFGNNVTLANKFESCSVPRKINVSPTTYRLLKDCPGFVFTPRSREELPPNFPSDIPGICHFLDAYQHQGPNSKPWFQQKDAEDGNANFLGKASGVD
Description: The investigations of the stimulation of recombinant soluble guanylate cyclase (sGC) […] heme-dependent sGC inhibitor 1H-1,2,4-oxadiazole-(4,3a)-quinoxalin-1-one (ODQ) were carried out according to the method described in detail in the following literature reference: M. Hoenicka, E. M. Becker, H. Apeler, T. Sirichoke, H. Schroeder, R. Gerzer and J.-P. Stasch: Purified soluble guanylyl cyclase expressed in a baculovirus/Sf9 system: stimulation by YC-1, nitric oxide, and carbon oxide. J. Mol. Med. 77 (1999): 14-23.
(§1) Activation of sGC by a test substance is stated as n-fold stimulation of basal activity.

arteria saphena rings = assay: Vasorelaxant effect in vitro (phenylephrine-contracted arteria saphena rings); assay type: cell-based, Rabbits; conditions: Oryctolagus cuniculus; rabbit arteria saphena rings, phenylephrine contraction
Description: Rabbits are anesthetized or killed by intravenous injection of thiopental sodium (about 50 mg/kg) and exsanguinated. The arteria saphena is removed and divided into rings 3 mm wide. The individual rings are in each case mounted on a pair of hooks of triangular shape, open at the ends and made of special wire (Remanium®) having a diameter of 0.3 mm. Under pretension, each ring is introduced into a 5 ml organ bath containing carbogen-gassed Krebs-Henseleit solution at 37° C. with the following composition (mM): NaCl: 119; KCl: 4.8; CaCl2×2H2O: 1; MgSO4×7H2O: 1.4; KH2PO4: 1.2; NaHCO3: 25; glucose: 10; bovine serum albumin: 0.001%. The force of contraction is detected with Statham UC2 cells, amplified and digitized via A/D converters (DAS-1802 HC, Keithley Instruments, Munich) and recorded in parallel on chart recorders. Contractions are generated by adding phenylephrine.
After several (generally 4) control cycles, the substance to be investigated is added in each further run in increasing dosage, and the height of the contraction reached under the influence of the test substance is compared with the height of the contraction reached in the last preceding run. The concentration necessary to reduce the height of the control value by 50% (IC50) is calculated from this. The standard application volume is 5 μl. The DMSO content in the bath solution corresponds to 0. 1%.

Heme-free sGC = target: T2, Heme-free sGC (Rattus norvegicus, UniProt P20595); assay: Stimulation of recombinant soluble guanylate cyclase (sGC) in vitro, heme-free enzyme; assay type: biochemical
T2 construct: made in house; host or cells: Sf9 insect cells (baculovirus)
T2 sequence (P20595 1-619): T1 sequence (P20595 1-619)
T2 sequence (P19686 1-690 partner): T1 sequence (P19686 1-690 partner)
Description: The investigations of the stimulation of recombinant soluble guanylate cyclase (sGC) and the compounds according to the invention with and without sodium nitroprusside and with and without the heme-dependent sGC inhibitor 1H-1,2,4-oxadiazole-(4,3a)-quinoxalin-1-one (ODQ) were carried out according to the method described in detail in the following literature reference: M. Hoenicka, E. M. Becker, H. Apeler, T. Sirichoke, H. Schroeder, R. Gerzer and J.-P. Stasch: Purified soluble guanylyl cyclase expressed in a baculovirus/Sf9 system: stimulation by YC-1, nitric oxide, and carbon oxide. J. Mol. Med. 77 (1999): 14-23.
The heme-free guanylate cyclase was obtained by adding Tween 20 to the sample buffer (final concentration 0.5%).
as §1

[1] = system: porcine serum-induced rat liver fibrosis; assay: Antifibrotic action in vivo, porcine serum-induced rat liver fibrosis; set-up: species or system Female Sprague Dawley rats; conditions: seven weeks
From the text: The antifibrotic action of the substances was investigated using the model of the porcine serum-induced rat liver fibrosis. Treatment with heterologous serum, for example porcine serum in rats, is a method frequently used in the literature for inducing fibrosis of the liver with subsequent cirrhosis which, in contrast to other models, causes only minimal damage and inflammation of the parenchyma cells of the liver (Bhunchet, E. and Wake, K. (1992): Role of mesenchymal cell populations in porcine serum-induced rat liver fibrosis. Hepatology 16: 1452-1473). […] After seven weeks of treatment, the animals were killed and the livers were removed in order to quantify the collagen content. […]
Fast Green was used as counterstain to enhance contrasts. In each section, the extent of liver fibrosis was determined as a percentage of the area stained by Pikrosirius Red of the total area measured. […] 64 fields of a standardized grid of 31 mm^2 were measured using a final amplification of 100. […]
To determine OH-proline according to Prockop and Udenfried (Prockop, D. J. and Udenfried, S. A. (1960): A specific method for the analysis of hydroxyproline in tissues and urine. Anal. Biochem. 1: 228-239), in each case 50-100 mg of liver tissue were dried and boiled with 6N HCl for about 17 hours. […] After 3 hours of incubation at 35° C., absorption at 573 nm was measured. […]

Compound: CCN(CC)[N+]([O-])=NO [DEA/NO, 2-(N,N-diethylamino)diazenolate 2-oxide, reference compound]
Stimulation (n-fold), heme-containing sGC, DEA/NO alone (Heme-containing sGC; DEA/NO 0.001 μM): 5 n-fold
Stimulation (n-fold), heme-containing sGC, DEA/NO alone (Heme-containing sGC; DEA/NO 0.01 μM): 30 n-fold
Stimulation (n-fold), heme-containing sGC, DEA/NO alone (Heme-containing sGC; DEA/NO 0.1 μM): 124 n-fold

Compound: O=C(O)CCCCN(CCc1ccccc1OCc1ccc(C2CCCCC2)cc1Cl)Cc1ccc(C(=O)O)cc1 [Example 12]
IC50 (arteria saphena rings): 2000 pM

More lines, main results first:

IC50 (arteria saphena rings): 1800 pM
Compound: O=C(O)CCCCN(CCc1ccccc1OCc1ccc(C2=CCCCC2)cc1Cl)Cc1ccc(C(=O)O)cc1 [Example 9]

IC50 (arteria saphena rings): 150 pM
Compound: CC(C)(C)c1ccc(-c2ccc(COc3ccccc3CCN(CCCCC(=O)O)Cc3ccc(C(=O)O)cc3)c(F)c2)cc1 [Example 2]

IC50 (arteria saphena rings): 170 pM
Stimulation (n-fold), heme-containing sGC, basal (Heme-containing sGC; Ex. 6 0.001 μM): 2 n-fold
Stimulation (n-fold), heme-containing sGC, + DEA/NO (0.001 μM) (Heme-containing sGC; Ex. 6 0.001 μM + DEA/NO 0.001 μM): 6 n-fold
Stimulation (n-fold), heme-containing sGC, + DEA/NO (0.01 μM) (Heme-containing sGC; Ex. 6 0.001 μM + DEA/NO 0.01 μM): 32 n-fold
Stimulation (n-fold), heme-containing sGC, + DEA/NO (0.1 μM) (Heme-containing sGC; Ex. 6 0.001 μM + DEA/NO 0.1 μM): 127 n-fold
Stimulation (n-fold), heme-containing sGC, + ODQ (10 μM) (Heme-containing sGC; Ex. 6 0.001 μM + ODQ 10 μM): 35 n-fold
Stimulation (n-fold), heme-containing sGC, basal (Heme-containing sGC; Ex. 6 0.01 μM): 9 n-fold
Stimulation (n-fold), heme-containing sGC, + DEA/NO (0.001 μM) (Heme-containing sGC; Ex. 6 0.01 μM + DEA/NO 0.001 μM): 13 n-fold
Stimulation (n-fold), heme-containing sGC, + DEA/NO (0.01 μM) (Heme-containing sGC; Ex. 6 0.01 μM + DEA/NO 0.01 μM): 39 n-fold
Stimulation (n-fold), heme-containing sGC, + DEA/NO (0.1 μM) (Heme-containing sGC; Ex. 6 0.01 μM + DEA/NO 0.1 μM): 134 n-fold
Stimulation (n-fold), heme-containing sGC, + ODQ (10 μM) (Heme-containing sGC; Ex. 6 0.01 μM + ODQ 10 μM): 95 n-fold
Stimulation (n-fold), heme-containing sGC, basal (Heme-containing sGC; Ex. 6 0.1 μM): 18 n-fold
Stimulation (n-fold), heme-containing sGC, + DEA/NO (0.001 μM) (Heme-containing sGC; Ex. 6 0.1 μM + DEA/NO 0.001 μM): 25 n-fold
Stimulation (n-fold), heme-containing sGC, + DEA/NO (0.01 μM) (Heme-containing sGC; Ex. 6 0.1 μM + DEA/NO 0.01 μM): 52 n-fold
Stimulation (n-fold), heme-containing sGC, + DEA/NO (0.1 μM) (Heme-containing sGC; Ex. 6 0.1 μM + DEA/NO 0.1 μM): 157 n-fold
Stimulation (n-fold), heme-containing sGC, + ODQ (10 μM) (Heme-containing sGC; Ex. 6 0.1 μM + ODQ 10 μM): 147 n-fold
Stimulation (n-fold), heme-containing sGC, basal (Heme-containing sGC; Ex. 6 1.0 μM): 23 n-fold
Stimulation (n-fold), heme-containing sGC, + DEA/NO (0.001 μM) (Heme-containing sGC; Ex. 6 1.0 μM + DEA/NO 0.001 μM): 30 n-fold
Stimulation (n-fold), heme-containing sGC, + DEA/NO (0.01 μM) (Heme-containing sGC; Ex. 6 1.0 μM + DEA/NO 0.01 μM): 53 n-fold
Stimulation (n-fold), heme-containing sGC, + DEA/NO (0.1 μM) (Heme-containing sGC; Ex. 6 1.0 μM + DEA/NO 0.1 μM): 151 n-fold
Stimulation (n-fold), heme-containing sGC, + ODQ (10 μM) (Heme-containing sGC; Ex. 6 1.0 μM + ODQ 10 μM): 150 n-fold
Stimulation (n-fold), heme-containing sGC, basal (Heme-containing sGC; Ex. 6 10 μM): 25 n-fold
Stimulation (n-fold), heme-containing sGC, + DEA/NO (0.001 μM) (Heme-containing sGC; Ex. 6 10 μM + DEA/NO 0.001 μM): 30 n-fold
Stimulation (n-fold), heme-containing sGC, + DEA/NO (0.01 μM) (Heme-containing sGC; Ex. 6 10 μM + DEA/NO 0.01 μM): 67 n-fold
Stimulation (n-fold), heme-containing sGC, + DEA/NO (0.1 μM) (Heme-containing sGC; Ex. 6 10 μM + DEA/NO 0.1 μM): 174 n-fold
Stimulation (n-fold), heme-containing sGC, + ODQ (10 μM) (Heme-containing sGC; Ex. 6 10 μM + ODQ 10 μM): 159 n-fold
Stimulation (n-fold), heme-free sGC, basal (Heme-free sGC; Ex. 6 0.001 μM): 10 n-fold
Stimulation (n-fold), heme-free sGC, + ODQ (10 μM) (Heme-free sGC; Ex. 6 0.001 μM + ODQ 10 μM): 25 n-fold
Stimulation (n-fold), heme-free sGC, basal (Heme-free sGC; Ex. 6 0.01 μM): 55 n-fold
Stimulation (n-fold), heme-free sGC, + ODQ (10 μM) (Heme-free sGC; Ex. 6 0.01 μM + ODQ 10 μM): 61 n-fold
Stimulation (n-fold), heme-free sGC, basal (Heme-free sGC; Ex. 6 0.1 μM): 81 n-fold
Stimulation (n-fold), heme-free sGC, + ODQ (10 μM) (Heme-free sGC; Ex. 6 0.1 μM + ODQ 10 μM): 79 n-fold
Stimulation (n-fold), heme-free sGC, basal (Heme-free sGC; Ex. 6 1.0 μM): 83 n-fold
Stimulation (n-fold), heme-free sGC, + ODQ (10 μM) (Heme-free sGC; Ex. 6 1.0 μM + ODQ 10 μM): 83 n-fold
Stimulation (n-fold), heme-free sGC, basal (Heme-free sGC; Ex. 6 10 μM): 84 n-fold
Stimulation (n-fold), heme-free sGC, + ODQ (10 μM) (Heme-free sGC; Ex. 6 10 μM + ODQ 10 μM): 83 n-fold
Compound: O=C(O)CCCCN(CCc1ccccc1OCc1ccc(-c2ccc(C(F)(F)F)cc2)cc1Cl)Cc1ccc(C(=O)O)cc1 [Example 6]
Reduction of collagen deposits in the liver (OH-proline, morphometric fibrosis measurement) ([1]; 0.03 mg/kg p.o. o.d.): about a half
Reduction of collagen deposits in the liver (OH-proline, morphometric fibrosis measurement) ([1]; 0.1 mg/kg p.o. o.d.): about a half
